Measured values from patent US6825170B2, “6-O-acyl ketolide antibacterials” (Ortho-McNeil Pharmaceutical, Inc., priority 2001, dated 2004).
≈ marks a conversion by molar mass, not a printed value.

How the values were obtained:
Experiment in all cases: MIC, microdilution broth method (NCCLS)
Assay type in all cases: cell-based
Settings in all cases: 35° C., 16-20 hours
E. faecalis ATCC29212 = test system: E. faecalis ATCC29212
Summary of the method: (§1)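 Actively growing broth cultures are turbidity-adjusted to give about 5×10^4 CFU/well, then added to two-fold compound dilutions in cation-adjusted Mueller-Hinton broth. After 16-20 hours at 35° C, growth is compared with untreated controls.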

H. influenzae ATCC49247 = test system: H. influenzae ATCC49247
Summary of the method: as §1

S. aureus ATCC29213 = test system: S. aureus ATCC29213
Summary of the method: as §1

S. pneumoniae ATCC49619 = test system: S. pneumoniae ATCC49619
Summary of the method: as §1

Structure (SMILES) | MIC (C: E. faecalis ATCC29212) (E. faecalis ATCC29212) [µg/mL] | MIC (E: H. influenzae ATCC49247) (H. influenzae ATCC49247) [µg/mL] | MIC (B: S. aureus ATCC29213) (S. aureus ATCC29213) [µg/mL] | MIC (D: S. pneumoniae ATCC49619) (S. pneumoniae ATCC49619) [µg/mL]
CC[C@H]1OC(=O)[C@H](C)C(=O)[C@H](C)[C@@H](O[C@@H]2O[C@H](C)C[C@H](N(C)C)[C@H]2O)[C@](C)(OC(=O)SCCc2ccc(-n3cncn3)cc2)C[C@@H](C)C(=O)[C@H](C)[C@H]2NC(=O)O[C@@]21C [Compound 836] | 0.12 (≈ 0.145 µM) | 1 (≈ 1.2 µM) | 0.25 (≈ 0.301 µM) | 0.03 (≈ 0.0361 µM)
CC[C@H]1OC(=O)[C@H](C)C(=O)[C@H](C)[C@@H](O[C@@H]2O[C@H](C)C[C@H](N(C)C)[C@H]2O)[C@](C)(OC(=O)SC/C=C/c2cnc3ccccc3c2)C[C@@H](C)C(=O)[C@H](C)[C@H]2NC(=O)O[C@@]21C [Compound 837] | 0.25 (≈ 0.303 µM) | 8 (≈ 9.68 µM) | 2 (≈ 2.42 µM) | 0.12 (≈ 0.145 µM)
CC[C@H]1OC(=O)[C@H](C)C(=O)[C@H](C)[C@@H](O[C@@H]2O[C@H](C)C[C@H](N(C)C)[C@H]2O)[C@](C)(OC(=O)SCc2cnc3ccccc3c2)C[C@@H](C)C(=O)[C@H](C)[C@H]2NC(=O)O[C@@]21C [Compound 838] | 0.12 (≈ 0.15 µM) | 1 (≈ 1.25 µM) | 0.25 (≈ 0.313 µM) | 0.06 (≈ 0.075 µM)
CC[C@H]1OC(=O)[C@H](C)C(=O)[C@H](C)[C@@H](O[C@@H]2O[C@H](C)C[C@H](N(C)C)[C@H]2O)[C@](C)(OC(=O)SCc2ccc(-c3ccccn3)s2)C[C@@H](C)C(=O)[C@H](C)[C@H]2NC(=O)O[C@@]21C [Compound 839] | 0.12 (≈ 0.144 µM) | 2 (≈ 2.4 µM) | 1 (≈ 1.2 µM) | 0.06 (≈ 0.0721 µM)
CC[C@H]1OC(=O)[C@H](C)C(=O)[C@H](C)[C@@H](O[C@@H]2O[C@H](C)C[C@H](N(C)C)[C@H]2O)[C@](C)(OC(=O)Cc2ccccc2)C[C@@H](C)C(=O)[C@H](C)[C@H]2NC(=O)O[C@@]21C [Compound 843] | 2 (≈ 2.79 µM) | 16 (≈ 22.3 µM) | 8 (≈ 11.2 µM) | 0.5 (≈ 0.697 µM)
CC[C@H]1OC(=O)[C@H](C)C(=O)[C@H](C)[C@@H](O[C@@H]2O[C@H](C)C[C@H](N(C)C)[C@H]2O)[C@](C)(OC(=O)CCCc2ccccc2)C[C@@H](C)C(=O)[C@H](C)[C@H]2NC(=O)O[C@@]21C [Compound 844] | 0.12 (≈ 0.161 µM) | 4 (≈ 5.37 µM) | 0.5 (≈ 0.671 µM) | 0.03 (≈ 0.0403 µM)

Now from value to molecule:

MIC (C: E. faecalis ATCC29212) (E. faecalis ATCC29212) [µg/mL] | MIC (E: H. influenzae ATCC49247) (H. influenzae ATCC49247) [µg/mL] | MIC (B: S. aureus ATCC29213) (S. aureus ATCC29213) [µg/mL] | MIC (D: S. pneumoniae ATCC49619) (S. pneumoniae ATCC49619) [µg/mL] | Structure (SMILES)
0.12 (≈ 0.147 µM) | 2 (≈ 2.45 µM) | 0.5 (≈ 0.613 µM) | 0.06 (≈ 0.0735 µM) | CC[C@H]1OC(=O)[C@H](C)C(=O)[C@H](C)[C@@H](O[C@@H]2O[C@H](C)C[C@H](N(C)C)[C@H]2O)[C@](C)(OC(=O)SCc2ccc(-n3cncn3)cc2)C[C@@H](C)C(=O)[C@H](C)[C@H]2NC(=O)O[C@@]21C [Compound 840]
0.12 (≈ 0.147 µM) | 2 (≈ 2.45 µM) | 0.5 (≈ 0.612 µM) | 0.03 (≈ 0.0367 µM) | CC[C@H]1OC(=O)[C@H](C)C(=O)[C@H](C)[C@@H](O[C@@H]2O[C@H](C)C[C@H](N(C)C)[C@H]2O)[C@](C)(OC(=O)SCc2cn(-c3ncccn3)cn2)C[C@@H](C)C(=O)[C@H](C)[C@H]2NC(=O)O[C@@]21C [Compound 841]
>16 | >16 | >16 | 4 (≈ 4.94 µM) | CC[C@H]1OC(=O)[C@H](C)C(=O)[C@H](C)[C@@H](O[C@@H]2O[C@H](C)C[C@H](N(C)C)[C@H]2O)[C@](C)(OC(=O)n2ccc(C(=N)Cc3ccccc3)c2)C[C@@H](C)C(=O)[C@H](C)[C@H]2NC(=O)O[C@@]21C [Compound 845]
1 (≈ 1.19 µM) | 2 (≈ 2.39 µM) | 8 (≈ 9.56 µM) | 0.25 (≈ 0.299 µM) | CCC1OC(=O)C(C)C(=O)C(C)C(OC2OC(C)CC(N(C)C)C2O)C(C)(OC(=O)n2ccc(C(=N)CCCc3ccccc3)c2)CC(C)C(=O)C(C)C2NC(=O)OC12C (stereo not shown) [Compound 846]
